Experimental data published in patent publication US12201745B2, “Vascular extracellular matrix hydrogel” (University of Pittsburgh—Of the Commonwealth System of …, priority 2016, dated 2025).

Columns and labels:
[1] = tested on: Primary human adventitia-derived endothelial cells; test: Endothelial cell branching assay (tube-like structures on GFR-Matrigel); type: cell-based; conditions: 100 nM
Experimental: FIGS. 13A-13C. Effect of ECM bioscaffolds on network formation of tube-like structures in vitro. FIG. 13A—Human adventitia-derived endothelial cells were cultured on growth factor reduced-Matrigel substrates: (A) DMSO, 0.05% (v/v), (B) Digestion buffer (1% (w/v) Pepsin in 0.1 N HCl), (C) pAdv ECM, and (D) pSIS ECM. FGF2 inhibitor PD173074 (100 nM) was added to the culture medium of above treatments shown in parallel wells (E-H). A-H: One representative 10× field is shown, selected from one of three replicates of two independent experiments. All scale bars=50 μm for (A-H). Quantification of the number (FIG. 13B) and total length (FIG. 13C) of tube-like structures from 5×5 stitched fields captured at 10× for non-ECM-supplemented (open bars), pAdv (solid bars) and pSIS (gray bars) ECM-supplemented substrates in the absence and presence of PD173074. Bars represent mean of three assay replicates ±standard deviation. Images and graphs represent data from one of two independent experiments. *Significant from pepsin HCl, p<0.02; #Significant from pAdv ECM-treated cells in the absence of PD173074, p<0.03.
Endothelial Cell Branching Assay. […] Total number and length of tube-like structures were quantified using NIS Elements Software.

[2] = tested on: chick chorioallantoic membrane (CAM); test: Chick chorioallantoic membrane (CAM) model of in vivo angiogenesis; conditions: 100 nM PD173074 with 250 μg/mL pAdv ECM bioscaffold in fibrin scaffold
Experimental: FIGS. 14A-14D. Effect of ECM bioscaffolds on angiogenesis in vivo. FIG. 14A) Representative bright field images of scaffolds before (Time 0) and after (72 hr) incubation on the chorioallantoic membrane (CAM) of the chick embryo. […] There was no appreciable angiogenic response detected around scaffolds loaded with digestion buffer (1% (w/v) pepsin in 0.1 N HCl) or DMSO. Addition of the FGF2 inhibitor PD173074 (100 nM) abrogated the angiogenic response to pAdv ECM. […] All scale bars for FIG. 14A=5 mm. FIG. 14B) Representative histological cross-sections of CAM assay scaffolds. The CAM vasculature was visualized using injected tomato lectin-Dylight® 650 (red) and nuclei are labeled with Hoechst dye (blue). A dashed white line denotes the scaffold/CAM interface. […] The maximum tested dose of pAdv ECM (500 μg/mL) inhibited invasion of blood vessels into the scaffold. […] All scale bars in FIG. 14B and FIG. 14C=[…] *Avascular zone comprised of lectin-negative cells. FIG. 14D). […] (*) avascular zone comprised of lectin-negative cells. All scale bars for FIG. 14D=20 μm.
Chick Chorioallantoic Membrane (CAM) Model of In Vivo Angiogenesis. […]

CCN(CC)CCCCNc1ncc2cc(-c3cc(OC)cc(OC)c3)c(NC(=O)NC(C)(C)C)nc2n1 [PD173074]
effect on tube-like formation on non-ECM substrates ([1]; Matrigel alone or pepsin HCl-supplemented substrates): did not affect tube-like formation | effect on tube-like formation on ECM-supplemented substrates ([1]; pAdv and pSIS ECM bioscaffold-supplemented substrates vs absence of inhibitor): decreased the tube-like formation | effect on pAdv ECM bioscaffold-induced angiogenesis [2]: completely inhibited
